How the values were obtained:
wheat [1] = experiment: Test A postemergence; format: in vivo, Triticum aestivum; conditions: Triticum aestivum, post-emergence, 240 h, read-out: Plant response rating, Wheat
How it was run: (§1)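 Injury scores run from 0, no effect, to 100, complete control, judged by eye against untreated plants roughly 10 days after treatment. Chemicals carried a surfactant in a non-phytotoxic solvent and went onto loam–sand soil preemergence or onto one- to two-leaf seedlings postemergence.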

large (Lg) crabgrass [2] = experiment: Test A preemergence; format: in vivo, Digitaria sanguinalis
How it was run: as §1

morningglory = experiment: Test C postemergence; format: in vivo, Ipomoea coccinea
How it was run: (§2)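 Whole-plant greenhouse test with surfactant-containing solvent formulation, applied preemergence to sown loam–sand pots or postemergence to 2–18 cm plants. Scored by eye 13 to 15 days on, 0–100 scale.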

velvetleaf [3] = experiment: Test A postemergence; format: in vivo, Abutilon theophrasti; conditions: Abutilon theophrasti, post-emergence, 240 h, read-out: Plant response rating, Velvetleaf
How it was run: as §1

giant foxtail = experiment: Test A postemergence; format: in vivo, Setaria faberii; conditions: Setaria faberi, post-emergence, 240 h, read-out: Plant response rating, Foxtail, Giant
How it was run: as §1

large (Lg) crabgrass [4] = experiment: Test A postemergence; format: in vivo, Digitaria sanguinalis; conditions: Digitaria sanguinalis, post-emergence, 240 h, read-out: Plant response rating, Crabgrass, Large
How it was run: as §1

soybean = experiment: Test C postemergence; format: in vivo, Glycine max
How it was run: as §2

lambsquarters = experiment: Test C postemergence; format: in vivo, Chenopodium album
How it was run: as §2

rice = experiment: Test B flooded paddy test; format: in vivo, Oryza sativa; conditions: Oryza sativa; Flood, 250 g ai/ha; 0 to 100 scale where 0 is no effect and 100 is complete control; read-out: Plant response rating, Rice
How it was run: (§3)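 Flooded to 3 cm at the 2-leaf stage, pots received compound through the paddy water and were kept at that depth under greenhouse conditions. After 13–15 days, effect was rated by eye relative to controls, 0 = none and 100 = complete control.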

velvetleaf [5] = experiment: Test C postemergence; format: in vivo, Abutilon theophrasti
How it was run: as §2

velvetleaf [6] = experiment: Test A preemergence; format: in vivo, Abutilon theophrasti
How it was run: as §1

wheat [7] = experiment: Test A preemergence; format: in vivo, Triticum aestivum
How it was run: as §1

Heteranthera limosa = experiment: Test B flooded paddy test; format: in vivo; conditions: Heteranthera limosa, Flood, 250 g ai/ha; 0 to 100 scale where 0 is no effect and 100 is complete control; read-out: Plant response rating, Ducksalad
How it was run: as §3

oilseed rape = experiment: Test C postemergence; format: in vivo, Brassica napus
How it was run: as §2

pigweed = experiment: Test C postemergence; format: in vivo, Amaranthus retroflexus
How it was run: as §2

kochia = experiment: Test C postemergence; format: in vivo, Kochia scoparia; conditions: Bassia scoparia, post-emergence
How it was run: as §2

[8] = 125 g ai/ha, 0 to 100 scale, 0 no effect, 100 complete control
[9] = 500 g ai/ha, 0 to 100 scale where 0 is no effect and 100 is complete control
[10] = 31 g ai/ha, postemergence, visual rating, scale 0 to 100 (0 no effect, 100 complete control), 13 to 15 days

N#Cc1cccc(Oc2ncc(Cl)cn2)c1-n1cc(OCC(F)(F)F)cn1 [Compound 274, 3-[(5-chloro-2-pyrimidinyl)oxy]-2-[4-(2,2,2-trifluoroethoxy)-1H-pyrazol-1-yl]benzonitrile]
plant injury at 125 g/ha (wheat [1]; [8]): 70% | plant injury at 500 g/ha (wheat [1]; [9]): 80% | Crabgrass, Large plant response rating (0 to 100 scale) (large (Lg) crabgrass [2]; 125 g ai/ha): 100 | pest or weed control at 500 g/ha (large (Lg) crabgrass [2]; Digitaria sanguinalis, pre-emergence, 240 h, 500 g ai/ha, 0 to 100 scale where 0 is no effect and 100 is complete control, read-out: Crabgrass, Large plant response rating): 100% | Morningglory plant response rating (morningglory; [10]): 85 | pest or weed control at 16 g/ha (morningglory; Ipomoea, post-emergence, 16 g ai/ha, postemergence, 0 is no effect, 100 is complete control, read-out: Plant response rating (0 to 100), Morningglory): 85% | pest or weed control at 125 g/ha (morningglory; Ipomoea, post-emergence, 125 g ai/ha, postemergence, visual rating, scale 0 to 100 (0 no effect, 100 complete control), read-out: Plant response rating, Morningglory): 95% | pest or weed control at 62 g/ha (morningglory; Ipomoea, post-emergence, Postemergence, 62 g ai/ha, scale 0 to 100 (0 no effect, 100 complete control), 13 to 15 days, read-out: Plant response rating, Morningglory): 95% | pest or weed control at 125 g/ha (velvetleaf [3]; [8]): 100% | pest or weed control at 500 g/ha (velvetleaf [3]; [9]): 100% | pest or weed control at 125 g/ha (giant foxtail; [8]): 90% | pest or weed control at 500 g/ha (giant foxtail; [9]): 90% | pest or weed control at 125 g/ha (large (Lg) crabgrass [4]; [8]): 90% | pest or weed control at 500 g/ha (large (Lg) crabgrass [4]; [9]): 90% | Soybean plant response rating (soybean; [10]): 70 | Soybean plant response rating (crop injury, 0-100 scale) at 16 g/ha (soybean; Glycine max, post-emergence, 16 g ai/ha, postemergence, 0 is no effect, 100 is complete control): 45% | Soybean plant response rating (crop injury, 0-100 scale) at 125 g/ha (soybean; Glycine max, post-emergence, 125 g ai/ha, postemergence, visual rating, scale 0 to 100 (0 no effect, 100 complete control), read-out: Plant response rating, Soybean): 98% | Soybean plant response rating (crop injury, 0-100 scale) at 62 g/ha (soybean; Glycine max, post-emergence, Postemergence, 62 g ai/ha, scale 0 to 100 (0 no effect, 100 complete control), 13 to 15 days): 90% | Lambsquarters plant response rating (lambsquarters; [10]): 95 | pest or weed control at 16 g/ha (lambsquarters; Chenopodium album, post-emergence, 16 g ai/ha, postemergence, 0 is no effect, 100 is complete control, read-out: Plant response rating (0 to 100), Lambsquarters): 85% | pest or weed control at 125 g/ha (lambsquarters; Chenopodium album, post-emergence, 125 g ai/ha, postemergence, visual rating, scale 0 to 100 (0 no effect, 100 complete control), read-out: Plant response rating, Lambsquarters): 98% | pest or weed control at 62 g/ha (lambsquarters; Chenopodium album, post-emergence, Postemergence, 62 g ai/ha, scale 0 to 100 (0 no effect, 100 complete control), 13 to 15 days, read-out: Plant response rating, Lambsquarters): 95% | plant injury at 250 g/ha (rice): 60% | Velvetleaf plant response rating (velvetleaf [5]; [10]): 50 | pest or weed control at 16 g/ha (velvetleaf [5]; Abutilon theophrasti, post-emergence, 16 g ai/ha, postemergence, 0 is no effect, 100 is complete control, read-out: Plant response rating (0 to 100), Velvetleaf): 30% | pest or weed control at 125 g/ha (velvetleaf [5]; Abutilon theophrasti, post-emergence, 125 g ai/ha, postemergence, visual rating, scale 0 to 100 (0 no effect, 100 complete control), read-out: Plant response rating, Velvetleaf): 75% | pest or weed control at 62 g/ha (velvetleaf [5]; Abutilon theophrasti, post-emergence, Postemergence, 62 g ai/ha, scale 0 to 100 (0 no effect, 100 complete control), 13 to 15 days, read-out: Plant response rating, Velvetleaf): 65% | Velvetleaf plant response rating (0 to 100 scale) (velvetleaf [6]; 125 g ai/ha): 100 | pest or weed control at 500 g/ha (velvetleaf [6]; Abutilon theophrasti, pre-emergence, 240 h, 500 g ai/ha, 0 to 100 scale where 0 is no effect and 100 is complete control, read-out: Velvetleaf plant response rating): 100% | Wheat plant response rating (0 to 100 scale) (wheat [7]; 125 g ai/ha): 40 | plant injury at 500 g/ha (wheat [7]; Triticum aestivum, pre-emergence, 240 h, 500 g ai/ha, 0 to 100 scale where 0 is no effect and 100 is complete control, read-out: Wheat plant response rating): 80% | pest or weed control at 250 g/ha (Heteranthera limosa): 95% | Oilseed Rape plant response rating (oilseed rape; [10]): 80 | plant injury at 16 g/ha (oilseed rape; Brassica napus, post-emergence, 16 g ai/ha, postemergence, 0 is no effect, 100 is complete control, read-out: Plant response rating (0 to 100), Oilseed Rape): 60% | plant injury at 125 g/ha (oilseed rape; Brassica napus, post-emergence, 125 g ai/ha, postemergence, visual rating, scale 0 to 100 (0 no effect, 100 complete control), read-out: Plant response rating, Oilseed Rape): 90% | plant injury at 62 g/ha (oilseed rape; Brassica napus, post-emergence, Postemergence, 62 g ai/ha, scale 0 to 100 (0 no effect, 100 complete control), 13 to 15 days, read-out: Plant response rating, Oilseed Rape): 85% | Pigweed plant response rating (pigweed; [10]): 85 | pest or weed control at 16 g/ha (pigweed; Amaranthus retroflexus, post-emergence, 16 g ai/ha, postemergence, 0 is no effect, 100 is complete control, read-out: Plant response rating (0 to 100), Pigweed): 95% | pest or weed control at 125 g/ha (pigweed; Amaranthus retroflexus, post-emergence, 125 g ai/ha, postemergence, visual rating, scale 0 to 100 (0 no effect, 100 complete control), read-out: Plant response rating, Pigweed): 98% | pest or weed control at 62 g/ha (pigweed; Amaranthus retroflexus, post-emergence, Postemergence, 62 g ai/ha, scale 0 to 100 (0 no effect, 100 complete control), 13 to 15 days, read-out: Plant response rating, Pigweed): 90% | pest or weed control at 16 g/ha (kochia; 16 g ai/ha, postemergence, 0 is no effect, 100 is complete control, read-out: Plant response rating (0 to 100), Kochia): 85% | pest or weed control at 31 g/ha (kochia; 31 g ai/ha, postemergence, visual rating, scale 0 to 100 (0 no effect, 100 complete control), 13 to 15 days, read-out: Kochia plant response rating): 90% | pest or weed control at 125 g/ha (kochia; 125 g ai/ha, postemergence, visual rating, scale 0 to 100 (0 no effect, 100 complete control), read-out: Plant response rating, Kochia): 100% | pest or weed control at 62 g/ha (kochia; Postemergence, 62 g ai/ha, scale 0 to 100 (0 no effect, 100 complete control), 13 to 15 days, read-out: Plant response rating, Kochia): 100%

From US9695155B2, “Herbicidal substituted pyrimidinyloxy benzene compounds” (E. I. DU PONT DE NEMOURS AND COMPANY, priority 2013, dated 2017)
